Assay results taken from patent US8399014B2, “Physiologically active complex comprising protamine and/or salt therefor and an acidic macromolecular substance, and use thereof” (Maruha Nichiro Foods, Inc., priority 2008, dated 2013).

Assays:
[1] = test system: blood tri-glyceride level; test: Animal test of fat absorption suppressive effect: blood tri-glyceride AUC after corn oil; assay type: in vivo; conditions: Male SD rats
Method: (1) Sample for control group: Distilled water was filtrated by a membrane filter (DISMIC-13CP, PTFE, φ0.45 μm, ADVANTEC) and used as a test sample for the control group.
(2) Sample for protamine group: Protamine (2.50 g) was dissolved in distilled water (50 mL) filtrated by a membrane filter and used as a test sample for the protamine group.
(3) Sample for alginate mixture group: As a dispersant, soybean polysaccharide (SM-700, 400 mg) was dissolved in distilled water (50 mL) filtrated by a membrane filter to prepare a 0.8% dispersant solution. Protamine (2.00 g) was dissolved with the 0.8% dispersant solution (20 mL) to prepare a protamine solution. To the protamine solution (12.5 mL), an alginate solution (12.5 mL), which was prepared by dissolving alginate (1.60 g) in the 0.8% dispersant solution (20 mL), was added while stirring to prepare a protamine complex suspension and used as a test sample for an alginate complex (mixture) group.
(4) Sample for gum arabic mixture group: Protamine (2.00 g) was dissolved in distilled water (20 mL) to prepare a protamine solution. […]
Evaluation was performed using Male SD rats (6 weeks old, 7 rats per group). […] Using the plasma samples, a blood tri-glyceride level was measured and compared to the control group with respect to blood-level area under the curve (AUC).

[2] = test system: fat absorption; conditions: oral; protamine dose of 0.5 g; cited from earlier work

**Q.** For protamine, which “fat absorption suppressive effect compared to the control group” value ([1]; oral, corn oil load) is on record?
**A.** The value was “significant fat absorption suppressive effect”.

**Q.** What about the “AUC relative to control group (blood tri-glyceride level)” value ([1]; test substance 5 mL/kg orally (corresponding to 0.5 g/kg in terms of protamine), then corn oil 5 mL/kg, blood at 0, 1.5, 3.0, 4.5 hours) of the same substance?
**A.** The value was 78 ± 7%.

**Q.** And the “fat absorption suppressive effect when orally taken by humans” value [2]?
**A.** The value was “exerts a fat absorption suppressive effect”.
